Common to all, as to type: cell-based
The test system of one experiment is human A375 cells. The experiment can be described thus: Protection of melanocytes from tunicamycin (ER stress) induced cell death, MTT assay, A375. Particulars: for % Recovery: compound at 25-30 μM, 6 h pretreatment, tunicamycin 100 ng/ml, total 72 h, cell growth over tunicamycin treatment; for EC50: Homo sapiens, A-375, different concentrations of compound along with tunicamycin, GraphPad Prism 7. The procedure: (§1) Compounds synthesized under present invention were tested for their in vitro potency. The potency was tested as their ability to protect melanocytes from ER stress induced cell death. ER stress was caused by the treatment of tunicamycin. The results obtained are summarized in Table-I, Table-II and Table-III for mouse B16F10 cells, human A375 cells and human primary melanocytes respectively. Table-IV and Table-V describes the potency of the compounds in effective concentration 50 (EC50) which means the dose of compound needed to get the 50% of maximum effect.
(§2) For the estimation of potency, mouse B16F10, human A375 or human primary melanocytes (NHEM) cells were pretreated in quadruplicates with these compounds for 6 hours. After 6 hours of incubation, tunicamycin was added at either 300 ng/ml for B16F10 cells or at 100 ng/ml for A375 cells or at 200 ng/ml for NHEM to induce stress mediated cell death and cultured further for a total of 72 hours. The vehicle (DMSO) concentration was kept constant for each well. After 72 hours of treatment, MTT assay was performed to measure the cell growth and vehicle control was kept at 100%. Effect of the treatment of compounds was calculated as cell growth over tunicamycin treatment. For the estimation of Effective Concentration 50 (EC50), cells were treated with different concentration of compounds along with tunicamycin and MTT assay was performed. The EC50 values were calculated by GraphPad Prism 7 software.

The next experiment concerns mouse B16F10 cells. The experiment can be described thus: Protection of melanocytes from tunicamycin (ER stress) induced cell death, MTT assay, B16F10. To be noted: for % Recovery: compound at 25-30 μM, 6 h pretreatment, tunicamycin 300 ng/ml, total 72 h, cell growth over tunicamycin treatment; for EC50: Mus musculus, B16-F10, different concentrations of compound along with tunicamycin, GraphPad Prism 7. The procedure: as §1, §2

Experiment [1] concerns human primary melanocytes (NHEM: Normal Human Epidermal Melanocytes). The experiment can be described thus: Protection of melanocytes from tunicamycin (ER stress) induced cell death, MTT assay, NHEM. Particulars: compound at 25-30 μM, 6 h pretreatment, tunicamycin 200 ng/ml, total 72 h, cell growth over tunicamycin treatment. The procedure:
as §1, §2

For `O=C(Cc1c[nH]c(-c2ccc(Cl)cc2)n1)NCCc1ccc(F)cc1` [Compound 001, 2-(2-(4-chlorophenyl)-1H-imidazol-4-yl)-N-(4-fluorophenethyl)acetamide], the results for the “% Recovery” value in the experiment on human A375 cells and in the experiment on mouse B16F10 cells were 25% and 52%, respectively.
On to `CCCC(=O)NCCc1c[nH]c(-c2ccc(Cl)cc2)n1` [Compound 002, N-(2-(2-(4-chlorophenyl)-1H-imidazol-4-yl)ethyl)butyramide], for which the “% Recovery” value in experiment [1] is 17%; in the experiment on human A375 cells, 22%; with mouse B16F10 cells it was 58%. The EC50 in the experiment with human A375 cells worked out at 20.6 µM; in the experiment with mouse B16F10 cells it was 2.71 µM.
`O=C(Cc1c[nH]c(-c2ccc(Cl)cc2)n1)NCCN1CCOCC1` [Compound 003, 2-(2-(4-chlorophenyl)-1H-imidazol-4-yl)-N-(2-morpholinoethyl)acetamide]: the “% Recovery” value with human A375 cells is 13%; in the experiment on mouse B16F10 cells, 17%.
On the same counts, the results for `CCCCNC(=O)Cc1c[nH]c(-c2ccc(Cl)cc2)n1` [Compound 004, N-butyl-2-(2-(4-chlorophenyl)-1H-imidazol-4-yl)acetamide] are 32% and 22%.
On to `CCCCNC(=O)Cc1cn(C)c(-c2ccc(Cl)cc2)n1` [Compound 005, N-butyl-2-(2-(4-chlorophenyl)-1-methyl-1H-imidazol-4-yl)acetamide], for which the “% Recovery” value in the experiment with mouse B16F10 cells turned out to be 38%.
Still for that read-out and setting: with `Cn1cc(CC(=O)NCCN2CCOCC2)nc1-c1ccc(Cl)cc1` [Compound 006, 2-(2-(4-chlorophenyl)-1-methyl-1H-imidazol-4-yl)-N-(2-morpholinoethyl)acetamide] the figure was 31%.
Consider `Cn1cc(CC(=O)Nc2cccc(C(F)(F)F)c2)nc1-c1ccc(Cl)cc1` [Compound 007, 2-(2-(4-chlorophenyl)-1-methyl-1H-imidazol-4-yl)-N-(3-(trifluoromethyl)phenyl)acetamide], for which the “% Recovery” value turned out to be 19% in the experiment on human A375 cells and 38% in the experiment with mouse B16F10 cells.
Take `CC(C)OCCCNC(=O)Cc1cn(C)c(-c2ccc(Cl)cc2)n1` [Compound 008, 2-(2-(4-chlorophenyl)-1-methyl-1H-imidazol-4-yl)-N-(3-isopropoxypropyl)acetamide]: the “% Recovery” value in the experiment with mouse B16F10 cells was 39%.
Still for that read-out and setting: the result for `O=C(Cc1c[nH]c(-c2ccc(Cl)cc2)n1)Nc1cccc(C(F)(F)F)c1` [Compound 009, 2-(2-(4-chlorophenyl)-1H-imidazol-4-yl)-N-(3-(trifluoromethyl)phenyl)acetamide] reads 36%.
On to `CC(C)OCCCNC(=O)Cc1c[nH]c(-c2ccc(Cl)cc2)n1` [Compound 010, 2-(2-(4-chlorophenyl)-1H-imidazol-4-yl)-N-(3-isopropoxypropyl)acetamide], for which the “% Recovery” value with human A375 cells is on record as 17%; with mouse B16F10 cells it was 12%.
For the molecule `O=C(Cc1c[nH]c(-c2ccc(Cl)cc2)n1)Nc1ccc(F)cc1` [Compound 011, 2-(2-(4-chlorophenyl)-1H-imidazol-4-yl)-N-(4-fluorophenyl)acetamide], the “% Recovery” value in the experiment with mouse B16F10 cells is 18%.
On the same count and under the same terms, with `O=C(Cc1c[nH]c(-c2ccc(Cl)cc2)n1)N1CCC(F)(F)CC1` [Compound 012, 2-(2-(4-chlorophenyl)-1H-imidazol-4-yl)-1-(4,4-difluoropiperidin-1-yl)ethan-1-one] the figure was 15%; with `Cn1cc(CC(=O)Nc2ccc(F)cc2)nc1-c1ccc(Cl)cc1` [Compound 013, 2-(2-(4-chlorophenyl)-1-methyl-1H-imidazol-4-yl)-N-(4-fluorophenyl)acetamide], 40%.
Take `O=C(Cc1c[nH]c(-c2ccc(Cl)cc2)n1)Nc1ccc(C(F)(F)F)cc1` [Compound 014, 2-(2-(4-chlorophenyl)-1H-imidazol-4-yl)-N-(4-(trifluoromethyl)phenyl)acetamide]: in the experiment with human A375 cells, the EC50 came out at 33.3 µM and the “% Recovery” value came to 36%. Also, the “% Recovery” value in the experiment with mouse B16F10 cells is given as 52%.
For `O=C(Cc1c[nH]c(-c2ccc(Cl)cc2)n1)N1CCCC1` [Compound 016, 2-(2-(4-chlorophenyl)-1H-imidazol-4-yl)-1-(pyrrolidin-1-yl)ethan-1-one], the “% Recovery” value in the experiment on human A375 cells is 17%; with mouse B16F10 cells, 14%.
`Cn1cc(CC(=O)N2CCCC2)nc1-c1ccc(Cl)cc1` [Compound 017, 2-(2-(4-chlorophenyl)-1-methyl-1H-imidazol-4-yl)-1-(pyrrolidin-1-yl)ethan-1-one]: the “% Recovery” value in the experiment with mouse B16F10 cells was 29%.
On the same count and under the same terms, the result for `O=C(Cc1c[nH]c(-c2ccc(Cl)cc2)n1)NC1CCCC1` [Compound 019, 2-(2-(4-chlorophenyl)-1H-imidazol-4-yl)-N-cyclopentylacetamide] reads 36%.
On the same count and under the same terms, the result for `CN1CCN(C(=O)Cc2c[nH]c(-c3ccc(Cl)cc3)n2)CC1` [Compound 020, 2-(2-(4-chlorophenyl)-1H-imidazol-4-yl)-1-(4-methylpiperazin-1-yl)ethan-1-one] reads 17%.
On to `CN1CCN(C(=O)Cc2cn(C)c(-c3ccc(Cl)cc3)n2)CC1` [Compound 021, 2-(2-(4-chlorophenyl)-1-methyl-1H-imidazol-4-yl)-1-(4-methylpiperazin-1-yl)ethan-1-one], for which the response in the experiment with mouse B16F10 cells was half-maximal at 55.7 µM (EC50).
`Cn1cc(CC(=O)NCCc2ccc(F)cc2)nc1-c1ccc(Cl)cc1` [Compound 022, 2-(2-(4-chlorophenyl)-1-methyl-1H-imidazol-4-yl)-N-(4-fluorophenethyl)acetamide]: the “% Recovery” value in the experiment on human A375 cells came to 18%; with mouse B16F10 cells, 44%. The same molecule had an EC50 in the experiment on mouse B16F10 cells of 13.7 µM.
Take `CC(C)(C)CC(=O)NCCc1c[nH]c(-c2ccc(Cl)cc2)n1` [Compound 025, N-(2-(2-(4-chlorophenyl)-1H-imidazol-4-yl)ethyl)-3,3-dimethylbutanamide]: the “% Recovery” value was 41% in experiment [1], 57% in the experiment with human A375 cells and 55% in the experiment on mouse B16F10 cells. The values for the EC50 with human A375 cells and in the experiment with mouse B16F10 cells were 14.2 µM and 3.3 µM, respectively.
Regarding `CC(C)CC(=O)NCCc1c[nH]c(-c2ccc(Cl)cc2)n1` [Compound 027, N-(2-(2-(4-chlorophenyl)-1H-imidazol-4-yl)ethyl)-3-methylbutanamide], the “% Recovery” value in experiment [1] worked out at 33%. In the experiment with human A375 cells, a half-maximal response (EC50) required 14.9 µM and the “% Recovery” value is 56%.
For `O=C(NCCc1c[nH]c(-c2ccc(Cl)cc2)n1)C12CC3CC(CC(C3)C1)C2` [Compound 064, (3r,5r,7r)-N-(2-(2-(4-chlorophenyl)-1H-imidazol-4-yl)ethyl)adamantane-1-carboxamide], in experiment [1], the “% Recovery” value was 38%. In the experiment with human A375 cells, a half-maximal response (EC50) required 4.9 µM and the “% Recovery” value was 65%.
As to `O=C(NCCc1c[nH]c(-c2ccc(Cl)cc2Cl)n1)c1ccc(C(F)(F)F)cc1` [Compound 066, N-(2-(2-(2,4-dichlorophenyl)-1H-imidazol-4-yl)ethyl)-4-(trifluoromethyl)benzamide], in the experiment on human A375 cells, the half-maximal effective concentration (EC50) was found to be 12.1 µM and the “% Recovery” value stood at 44%. Further, in the experiment with mouse B16F10 cells, the concentration for a half-maximal effect (EC50) was 7.2 µM and the “% Recovery” value was 50%.
In the same order, the values of `CCCCCC(=O)NCCc1c[nH]c(-c2ccc(Cl)cc2)n1` [Compound 067, N-(2-(2-(4-chlorophenyl)-1H-imidazol-4-yl)ethyl)hexanamide] are 3.1 µM, 54%, 9.7 µM and 40%.
In the same order, the values of `CCCCCCCC(=O)NCCc1c[nH]c(-c2ccc(Cl)cc2)n1` [Compound 068, N-(2-(2-(4-chlorophenyl)-1H-imidazol-4-yl)ethyl)octanamide] are 9 µM, 42%, 33.8 µM and 21%.
Regarding `O=C(NCCc1c[nH]c(-c2cc(Cl)cc(Cl)c2)n1)c1cc(F)cc(F)c1` [Compound 069, N-(2-(2-(3,5-dichlorophenyl)-1H-imidazol-4-yl)ethyl)-3,5-difluorobenzamide], in the experiment on human A375 cells, the concentration giving a half-maximal response (EC50) was determined as 1.2 µM and the “% Recovery” value is recorded as 88%.
Regarding `O=C(NCCc1c[nH]c(-c2ccc(Cl)cc2Cl)n1)c1ccc(F)cc1` [Compound 070, N-(2-(2-(2,4-dichlorophenyl)-1H-imidazol-4-yl)ethyl)-4-fluorobenzamide], in the experiment on human A375 cells, a half-maximal response (EC50) required 8.1 µM and the “% Recovery” value is 44%. Also, in the experiment with mouse B16F10 cells, the EC50 was determined as 11.9 µM and the “% Recovery” value was 51%.
In the same order, the values of `O=C(NCCc1c[nH]c(-c2ccc(Cl)cc2Cl)n1)c1cc(F)cc(F)c1` [Compound 071, N-(2-(2-(2,4-dichlorophenyl)-1H-imidazol-4-yl)ethyl)-3,5-difluorobenzamide] are 10.5 µM, 39%, 10.9 µM and 58%.

The record behind these values is US12378203B2, “Imidazole compounds, process for the synthesis and uses thereof” (AHAMMUNE BIOSCIENCES PRIVATE LIMITED, priority 2018, dated 2025).
